From publication PMC12514573, “The bacterial tRNA-modifying enzyme tRNA^Ile lysidine synthetase is genetically conserved but catalytically variable” (The Journal of Biological Chemistry, 2025)

Experiments:
Assay type in all cases: biochemical
[1] = biological target: T1, GkTilS (Geobacillus kaustophilus, UniProt Q5L3T3); assay: 3H-lysine incorporation into tRNA, filter scintillation; settings: labelled compound; cognate tRNA(Ile2) transcript, 2 mM ATP, 10 mM MgCl2, 10 mM KCl, pH 9.0
T1 construct: gene tilS; recombinant, pET-28a, Rosetta II E. coli; strain source only in supplement (codon-usage genome HTA426)
T1 sequence (Q5L3T3 1-464): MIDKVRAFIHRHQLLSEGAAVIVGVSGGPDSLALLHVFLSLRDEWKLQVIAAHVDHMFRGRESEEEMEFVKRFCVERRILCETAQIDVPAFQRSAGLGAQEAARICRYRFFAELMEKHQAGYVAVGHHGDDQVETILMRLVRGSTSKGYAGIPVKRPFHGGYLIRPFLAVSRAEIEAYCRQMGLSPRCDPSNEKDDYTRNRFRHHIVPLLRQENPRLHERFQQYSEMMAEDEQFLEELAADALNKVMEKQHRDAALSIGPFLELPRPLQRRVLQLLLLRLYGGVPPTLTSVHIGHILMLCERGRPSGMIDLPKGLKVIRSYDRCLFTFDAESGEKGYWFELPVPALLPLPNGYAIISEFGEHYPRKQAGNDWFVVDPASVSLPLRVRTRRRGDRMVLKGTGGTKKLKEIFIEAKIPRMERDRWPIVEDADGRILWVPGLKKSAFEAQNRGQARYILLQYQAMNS

[2] = biological target: T2, BcTilS (Burkholderia cenocepacia, UniProt B4ED70); assay: as above; settings: labelled compound; cognate tRNA(Ile2) transcript, 2 mM ATP, 10 mM MgCl2, 10 mM KCl, pH 9.0
T2 construct: gene tilS; recombinant, pET-28a, Rosetta II E. coli; strain source only in supplement (codon-usage genome HI2424)
T2 sequence (B4ED70 1-473): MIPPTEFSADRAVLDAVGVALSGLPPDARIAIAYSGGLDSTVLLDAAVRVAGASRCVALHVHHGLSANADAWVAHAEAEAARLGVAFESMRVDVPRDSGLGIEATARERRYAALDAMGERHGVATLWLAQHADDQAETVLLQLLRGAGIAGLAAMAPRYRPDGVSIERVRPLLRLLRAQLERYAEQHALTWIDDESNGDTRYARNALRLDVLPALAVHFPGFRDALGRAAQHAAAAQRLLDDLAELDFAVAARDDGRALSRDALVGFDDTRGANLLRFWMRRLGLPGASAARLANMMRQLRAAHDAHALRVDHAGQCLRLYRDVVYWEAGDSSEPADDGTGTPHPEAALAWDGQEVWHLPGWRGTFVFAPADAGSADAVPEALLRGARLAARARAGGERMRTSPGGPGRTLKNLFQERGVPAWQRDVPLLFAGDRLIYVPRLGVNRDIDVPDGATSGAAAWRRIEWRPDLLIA

[3] = biological target: T3, HpTilS (Helicobacter pylori, UniProt O25428); assay: as above; settings: labelled compound; cognate tRNA(Ile2) transcript, 2 mM ATP, 10 mM MgCl2, 10 mM KCl, pH 8.5
T3 construct: gene tilS; type II TilS; recombinant, Rosetta II E. coli; strain source only in supplement (codon-usage genome 26695)
T3 sequence (O25428 1-336): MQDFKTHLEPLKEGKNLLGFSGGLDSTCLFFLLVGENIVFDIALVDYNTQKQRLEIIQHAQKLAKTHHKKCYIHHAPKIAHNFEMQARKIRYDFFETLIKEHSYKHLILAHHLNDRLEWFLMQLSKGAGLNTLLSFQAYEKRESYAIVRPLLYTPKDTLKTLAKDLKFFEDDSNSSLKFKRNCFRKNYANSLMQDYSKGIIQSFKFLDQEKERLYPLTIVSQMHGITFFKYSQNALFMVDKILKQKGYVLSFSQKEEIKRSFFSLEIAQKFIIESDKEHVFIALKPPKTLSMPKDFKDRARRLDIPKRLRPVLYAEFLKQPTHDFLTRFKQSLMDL

[4] = biological target: T4, BfTilS (Bacteroides fragilis, UniProt Q5LFM6); assay: as above; settings: labelled compound; cognate tRNA(Ile2) transcript, 2 mM ATP, 10 mM MgCl2, 10 mM KCl, pH 8.5
T4 construct: gene tilS; recombinant, pET-28a, Rosetta II E. coli; strain source only in supplement (codon-usage genome NCTC9343)
T4 sequence (Q5LFM6 1-435): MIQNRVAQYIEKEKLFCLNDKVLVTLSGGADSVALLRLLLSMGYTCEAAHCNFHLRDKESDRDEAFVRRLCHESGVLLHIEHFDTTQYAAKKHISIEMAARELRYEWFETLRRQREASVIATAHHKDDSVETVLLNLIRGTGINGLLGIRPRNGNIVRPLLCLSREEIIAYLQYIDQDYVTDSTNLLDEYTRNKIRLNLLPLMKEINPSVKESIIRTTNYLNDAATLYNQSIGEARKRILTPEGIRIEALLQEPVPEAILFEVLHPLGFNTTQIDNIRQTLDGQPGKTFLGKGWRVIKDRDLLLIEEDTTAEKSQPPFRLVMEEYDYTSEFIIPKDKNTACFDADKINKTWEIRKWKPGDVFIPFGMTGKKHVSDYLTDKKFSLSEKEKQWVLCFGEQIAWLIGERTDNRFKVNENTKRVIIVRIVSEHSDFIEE

[5] = biological target: T5, PaTilS (Pseudomonas aeruginosa, UniProt Q9HXZ3); assay: as above; settings: labelled compound; cognate tRNA(Ile2) transcript, 2 mM ATP, 10 mM MgCl2, 10 mM KCl, pH 9.0
T5 construct: gene tilS; recombinant, pET-28a, Rosetta II E. coli; strain source only in supplement (codon-usage genome PAO1)
T5 sequence (Q9HXZ3 1-442): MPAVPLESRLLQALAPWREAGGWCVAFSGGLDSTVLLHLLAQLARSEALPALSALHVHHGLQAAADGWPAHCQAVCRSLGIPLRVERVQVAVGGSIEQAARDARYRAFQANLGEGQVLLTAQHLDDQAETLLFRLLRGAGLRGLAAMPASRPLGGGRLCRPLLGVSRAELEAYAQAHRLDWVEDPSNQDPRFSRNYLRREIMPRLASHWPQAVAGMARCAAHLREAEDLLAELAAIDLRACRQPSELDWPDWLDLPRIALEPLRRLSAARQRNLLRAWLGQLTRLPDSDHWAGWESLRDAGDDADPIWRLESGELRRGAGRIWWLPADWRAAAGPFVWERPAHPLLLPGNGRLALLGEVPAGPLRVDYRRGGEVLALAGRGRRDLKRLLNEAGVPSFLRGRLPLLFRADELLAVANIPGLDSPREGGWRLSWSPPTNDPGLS

[6] = biological target: T6, EcTilS (Escherichia coli, UniProt P52097); assay: as above; settings: labelled compound; cognate tRNA(Ile2) transcript, 2 mM ATP, 10 mM MgCl2, 10 mM KCl, pH 9.0
T6 construct: gene tilS; recombinant, pET-28a, Rosetta II E. coli; strain source only in supplement (codon-usage genome W3110)
T6 sequence (P52097 1-432): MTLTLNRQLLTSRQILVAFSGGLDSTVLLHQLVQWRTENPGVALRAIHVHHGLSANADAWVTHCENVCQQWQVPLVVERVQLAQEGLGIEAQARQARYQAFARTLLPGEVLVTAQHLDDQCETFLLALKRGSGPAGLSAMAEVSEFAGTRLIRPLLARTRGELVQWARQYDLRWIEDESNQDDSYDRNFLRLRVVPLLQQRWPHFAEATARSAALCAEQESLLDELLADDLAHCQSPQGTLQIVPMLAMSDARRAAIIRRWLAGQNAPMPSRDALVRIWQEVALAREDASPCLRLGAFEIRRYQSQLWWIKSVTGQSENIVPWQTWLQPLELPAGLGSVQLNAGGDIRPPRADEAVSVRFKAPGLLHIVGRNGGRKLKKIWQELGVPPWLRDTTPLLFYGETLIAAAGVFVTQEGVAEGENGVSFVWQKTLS

[7] = biological target: T7, MsTilS (Mycolicibacterium smegmatis, UniProt A0R594); assay: as above; settings: labelled compound; cognate tRNA(Ile2) transcript, 2 mM ATP, 10 mM MgCl2, 10 mM KCl, pH 8.5
T7 construct: gene tilS; type II TilS, lacks CTD2 naturally; recombinant, Rosetta II E. coli; strain source only in supplement (codon-usage genome MG(2)155)
T7 sequence (A0R594 1-322): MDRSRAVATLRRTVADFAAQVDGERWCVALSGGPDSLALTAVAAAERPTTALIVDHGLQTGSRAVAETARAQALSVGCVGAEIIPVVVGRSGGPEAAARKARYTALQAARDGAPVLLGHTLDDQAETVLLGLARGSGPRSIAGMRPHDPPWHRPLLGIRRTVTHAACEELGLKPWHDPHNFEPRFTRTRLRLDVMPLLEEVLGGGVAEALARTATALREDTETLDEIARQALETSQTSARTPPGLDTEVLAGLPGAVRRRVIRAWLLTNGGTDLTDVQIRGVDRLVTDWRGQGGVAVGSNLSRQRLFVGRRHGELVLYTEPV

[8] = biological target: T8, GkMetRS (Geobacillus kaustophilus, UniProt Q5L3W2); assay: tRNA methionylation (aminoacylation); settings: cognate tRNA(Met) transcript; assay details not given
T8 construct: gene metG; recombinant, cloned metS gene; details not in main text

[9] = biological target: T9, BcMetRS (Burkholderia cenocepacia, UniProt A0K9L0); assay: tRNA methionylation (aminoacylation); settings: cognate tRNA(Met) transcript; assay details not given
T9 construct: gene metG; recombinant, cloned metS gene; details not in main text
T9 sequence (A0K9L0 1-718): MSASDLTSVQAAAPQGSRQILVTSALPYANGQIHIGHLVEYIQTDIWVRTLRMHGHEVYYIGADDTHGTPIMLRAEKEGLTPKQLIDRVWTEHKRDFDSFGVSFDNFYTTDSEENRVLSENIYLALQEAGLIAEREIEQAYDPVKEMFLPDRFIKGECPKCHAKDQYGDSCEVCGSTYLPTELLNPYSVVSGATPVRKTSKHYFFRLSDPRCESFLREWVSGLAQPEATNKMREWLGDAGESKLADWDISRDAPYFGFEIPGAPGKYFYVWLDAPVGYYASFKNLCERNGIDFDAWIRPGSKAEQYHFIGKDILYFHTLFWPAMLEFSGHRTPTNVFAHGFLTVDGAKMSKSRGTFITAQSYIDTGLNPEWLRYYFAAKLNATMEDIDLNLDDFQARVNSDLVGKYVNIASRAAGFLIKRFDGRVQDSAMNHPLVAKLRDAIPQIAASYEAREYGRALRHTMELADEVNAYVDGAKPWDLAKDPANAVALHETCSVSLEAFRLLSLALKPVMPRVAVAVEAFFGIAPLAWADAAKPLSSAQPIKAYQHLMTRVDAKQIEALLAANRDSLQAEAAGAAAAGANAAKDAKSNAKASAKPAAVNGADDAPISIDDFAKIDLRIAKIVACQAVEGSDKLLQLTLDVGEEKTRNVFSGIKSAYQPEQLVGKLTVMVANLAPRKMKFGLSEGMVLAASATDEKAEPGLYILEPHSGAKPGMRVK

[10] = biological target: T10, PaMetRS (Pseudomonas aeruginosa, UniProt Q9HYC7); assay: tRNA methionylation (aminoacylation); settings: cognate tRNA(Met) transcript; assay details not given
T10 construct: gene metG; recombinant, cloned metS gene; details not in main text
T10 sequence (Q9HYC7 1-677): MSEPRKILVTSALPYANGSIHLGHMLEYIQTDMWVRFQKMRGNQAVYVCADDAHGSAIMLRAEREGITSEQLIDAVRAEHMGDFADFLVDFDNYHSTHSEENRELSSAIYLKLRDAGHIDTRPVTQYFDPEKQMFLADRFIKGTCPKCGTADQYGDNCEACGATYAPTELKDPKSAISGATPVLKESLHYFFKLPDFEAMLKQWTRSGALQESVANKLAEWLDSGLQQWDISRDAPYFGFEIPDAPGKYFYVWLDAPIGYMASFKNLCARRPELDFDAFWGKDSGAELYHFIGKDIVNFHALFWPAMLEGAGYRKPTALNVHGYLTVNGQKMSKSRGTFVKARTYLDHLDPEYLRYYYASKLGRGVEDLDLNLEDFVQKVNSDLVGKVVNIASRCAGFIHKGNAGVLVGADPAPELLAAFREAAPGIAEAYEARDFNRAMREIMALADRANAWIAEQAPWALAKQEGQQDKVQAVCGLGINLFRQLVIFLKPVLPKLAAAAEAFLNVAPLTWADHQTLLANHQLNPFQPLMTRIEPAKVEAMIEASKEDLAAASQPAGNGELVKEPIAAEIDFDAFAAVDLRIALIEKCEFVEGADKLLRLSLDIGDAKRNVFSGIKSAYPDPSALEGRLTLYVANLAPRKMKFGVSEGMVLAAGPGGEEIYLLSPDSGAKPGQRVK

T8 sequence (Q5L3W2 1-650): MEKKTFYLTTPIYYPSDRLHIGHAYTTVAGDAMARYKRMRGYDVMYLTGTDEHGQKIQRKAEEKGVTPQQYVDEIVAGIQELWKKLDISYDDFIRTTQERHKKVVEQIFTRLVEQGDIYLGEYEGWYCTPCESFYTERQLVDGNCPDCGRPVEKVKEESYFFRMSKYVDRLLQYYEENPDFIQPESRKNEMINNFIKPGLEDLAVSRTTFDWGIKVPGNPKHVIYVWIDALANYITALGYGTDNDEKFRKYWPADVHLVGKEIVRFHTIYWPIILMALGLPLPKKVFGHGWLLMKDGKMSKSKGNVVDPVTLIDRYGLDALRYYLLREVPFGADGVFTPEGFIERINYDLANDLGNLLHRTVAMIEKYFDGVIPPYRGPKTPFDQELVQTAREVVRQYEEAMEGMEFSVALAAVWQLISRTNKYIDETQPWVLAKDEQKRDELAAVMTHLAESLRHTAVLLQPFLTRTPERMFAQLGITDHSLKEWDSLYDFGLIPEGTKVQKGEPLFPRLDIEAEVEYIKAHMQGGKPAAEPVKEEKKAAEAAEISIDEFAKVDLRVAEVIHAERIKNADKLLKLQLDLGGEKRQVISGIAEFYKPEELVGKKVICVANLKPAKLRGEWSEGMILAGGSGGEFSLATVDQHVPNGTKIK

Row | Structure (SMILES) | 3H-lysine incorporation into tRNA, filter scintillation [1] | 3H-lysine incorporation into tRNA, filter scintillation [2] | 3H-lysine incorporation into tRNA, filter scintillation [3] | 3H-lysine incorporation into tRNA, filter scintillation [4] | 3H-lysine incorporation into tRNA, filter scintillation [5] | 3H-lysine incorporation into tRNA, filter scintillation [6] | 3H-lysine incorporation into tRNA, filter scintillation [7] | tRNA methionylation (aminoacylation) [8] | tRNA methionylation (aminoacylation) [9] | tRNA methionylation (aminoacylation) [10]
1 | NCCCC[C@H](N)C(=O)O [L-lysine] | Filters were counted by liquid scintillation to quantify lysine incorporation into transcript tRNA. | Filters were counted by liquid scintillation to quantify lysine incorporation into transcript tRNA. | Filters were counted by liquid scintillation to quantify lysine incorporation into transcript tRNA. | Filters were counted by liquid scintillation to quantify lysine incorporation into transcript tRNA. | Filters were counted by liquid scintillation to quantify lysine incorporation into transcript tRNA. | Filters were counted by liquid scintillation to quantify lysine incorporation into transcript tRNA. | Filters were counted by liquid scintillation to quantify lysine incorporation into transcript tRNA. | – | – | –
2 | CSCC[C@H](N)C(=O)O [methionine] | – | – | – | – | – | – | – | evaluated the methionylation activity toward cognate tRNA^Met and near-cognate tRNA^Ile2 substrates | evaluated the methionylation activity toward cognate tRNA^Met and near-cognate tRNA^Ile2 substrates | evaluated the methionylation activity toward cognate tRNA^Met and near-cognate tRNA^Ile2 substrates
